Data: publication PMC12630025, “Characterization and inhibitor sensitivity of ARAF, BRAF, and CRAF kinases [drawing 1]” (The Journal of Biological Chemistry, 2025)
Several values for one entry are separate records, joined by “and”; a condition that tells them apart may be missing. Equal entries are not always repeated. Where two headings read alike, the source gives them in different places. One block for each compound: values may come before it.

Columns and labels:
Format in all cases: biochemical
[1] = molecular target: T1, ARAF^SSDD (MEK1^SASA:ARAF^SSDD-14-3-3ε dimer complex) (Homo sapiens, UniProt P10398, G300S/Y301D/Y302D); experiment: TR-FRET kinase inhibition assay (phosphorylation of biotinylated MEK1), ARAF dimer complex; details: for ARAF^SSDD nH (Hill slope): four-parameter fit, 200 μM ATP; for IC50: 10 nM enzyme, 250 nM MEK1, 200 μM ATP, 40 min preincubation, 30 min reaction
T1 construct: ARAF^274-606, G300S, Y301/302D-14-3-3 ε with N-terminal His6 and StrepII tags; His6 (N); StrepII (N); made in house; host or cells: SF9 insect cells (baculovirus)
T1 sequence (P10398 274-606 G300S/Y301D/Y302D): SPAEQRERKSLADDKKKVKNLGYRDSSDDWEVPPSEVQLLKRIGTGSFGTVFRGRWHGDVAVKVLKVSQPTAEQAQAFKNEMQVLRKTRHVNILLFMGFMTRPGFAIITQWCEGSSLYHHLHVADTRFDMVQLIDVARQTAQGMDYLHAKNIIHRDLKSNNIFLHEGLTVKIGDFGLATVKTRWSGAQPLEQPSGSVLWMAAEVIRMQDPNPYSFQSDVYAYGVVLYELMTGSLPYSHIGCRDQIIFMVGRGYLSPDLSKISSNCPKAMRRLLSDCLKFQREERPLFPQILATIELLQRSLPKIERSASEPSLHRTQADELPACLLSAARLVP

[2] = molecular target: T2, BRAF^WT (MEK1^SASA:BRAF^WT:14-3-3 dimer complex) (Homo sapiens, UniProt P15056); experiment: biochemical
T2 construct: His6 (N); made in house; host or cells: SF9 insect cells (baculovirus)

[3] = molecular target: T3, CRAF^WT (MEK1:CRAF^WT:14-3-3 dimer complex) (Homo sapiens, UniProt P04049); experiment: TR-FRET kinase inhibition assay (phosphorylation of biotinylated MEK1), CRAF WT dimer complex; details: for CRAF^WT nH (Hill slope): four-parameter fit, 200 μM ATP
T3 construct: His6 (N); made in house; host or cells: insect cells (baculovirus)

[4] = molecular target: T4, CRAF^SSDD (MEK1^SASA:CRAF^SSDD:14-3-3 dimer complex) (Homo sapiens, UniProt P04049, Y340D/Y341D); experiment: TR-FRET kinase inhibition assay (phosphorylation of biotinylated MEK1), CRAF SSDD dimer complex; details: for CRAF^SSDD nH (Hill slope): four-parameter fit, 200 μM ATP
T4 construct: His6 (N); StrepII (N); made in house; host or cells: insect cells (baculovirus)

[5] = molecular target: T5, BRAF^V600E (MEK1^SASA:BRAF^V600E monomer complex) (Homo sapiens, UniProt P15056, V600E); experiment: TR-FRET kinase inhibition assay (phosphorylation of biotinylated MEK1), BRAF V600E monomer complex
T5 construct: His6 (N); intein (C, cleaved yes); made in house; host or cells: insect cells (baculovirus)

T2 sequence (P15056 419-766, one chain of several): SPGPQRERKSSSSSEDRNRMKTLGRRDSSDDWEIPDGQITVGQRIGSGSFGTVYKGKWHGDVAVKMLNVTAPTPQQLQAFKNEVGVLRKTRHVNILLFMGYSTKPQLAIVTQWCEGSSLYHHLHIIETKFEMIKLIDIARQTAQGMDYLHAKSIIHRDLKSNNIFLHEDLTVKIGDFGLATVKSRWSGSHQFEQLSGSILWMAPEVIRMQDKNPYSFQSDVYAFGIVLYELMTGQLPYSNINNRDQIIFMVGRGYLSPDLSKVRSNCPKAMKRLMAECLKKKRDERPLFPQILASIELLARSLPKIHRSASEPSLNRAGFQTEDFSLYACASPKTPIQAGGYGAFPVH

Compound: CNc1ncc2cc(-c3cc(NC(=O)NCCC(C)(C)C)c(F)cc3C)c(C)nc2n1 [LY3009120]
ARAF^SSDD nH (Hill slope) [1]: −3.6
cooperativity of inhibition of ARAF^SSDD ([1]; from Hill constants, less than −1.0 indicates positive cooperativity): clear positive cooperativity
BRAF^WT nH (Hill slope) ([2]; four-parameter fit, 200 μM ATP): −2.2
CRAF^WT nH (Hill slope) [3]: −1.4
CRAF^SSDD nH (Hill slope) [4]: −2.9

Compound: CCCS(=O)(=O)Nc1ccc(F)c(C(=O)c2c[nH]c3ncc(Cl)cc23)c1F [PLX4720]
IC50 [1]: 704 ± 264 nM
ARAF^SSDD nH (Hill slope) [1]: −0.5

Compound: Cc1ccc2c(Nc3cccc(Cl)c3F)nccc2c1NC(=O)c1csc2c(N)ncnc12 [Belvarafenib]
IC50 [1]: 69.9 ± 32 nM
ARAF^SSDD nH (Hill slope) [1]: −1.3
IC50 ([2]; 1 nM enzyme, 250 nM MEK1, 200 μM ATP, 40 min preincubation, 30 min reaction, read-out: BRAF^WT IC50): 19.9 ± 0.98 nM
effect of increasing ATP concentration on IC50 for BRAF^WT dimers ([2]; 10, 100, 1000 μM ATP): only modestly affected
IC50 ([2]; IC50 of BRAF^WT at 10 μM ATP, 10 μM ATP): 14.2 ± 6.36 nM
IC50 ([2]; IC50 of BRAF^WT at 100 μM ATP, 100 μM ATP): 21.5 ± 9.23 nM
IC50 ([2]; IC50 of BRAF^WT at 1000 μM ATP, 1000 μM ATP): 29.3 ± 8.75 nM
BRAF^WT nH (Hill slope) ([2]; four-parameter fit, 200 μM ATP): −3.0
IC50 [5]: 13.3 ± 0.87 nM
CRAF^WT IC50 ([3]; 4 nM enzyme, 250 nM MEK1, 200 μM ATP, 40 min preincubation, 30 min reaction): single-digit nanomolar
IC50 ([3]; 4 nM enzyme, 250 nM MEK1, 200 μM ATP, 40 min preincubation, 30 min reaction, read-out: CRAF^WT IC50): 5.05 ± 1.81 nM
CRAF^WT nH (Hill slope) [3]: −1.6
CRAF^SSDD IC50 ([4]; 1 nM enzyme, 250 nM MEK1, 200 μM ATP, 40 min preincubation, 30 min reaction): single-digit nanomolar
CRAF^SSDD nH (Hill slope) [4]: −3.0
IC50 ([4]; read-out: CRAF^SSDD IC50): 5.66 ± 1.12 nM

Compound: CCCS(=O)(=O)Nc1ccc(F)c(C(=O)c2c[nH]c3ncc(-c4ccc(Cl)cc4)cc23)c1F [Vemurafenib]
IC50 [1]: 47.6 ± 9.12 nM
ARAF^SSDD nH (Hill slope) [1]: −0.9
BRAF^WT nH (Hill slope) ([2]; four-parameter fit, 200 μM ATP): −0.6
CRAF^WT nH (Hill slope) [3]: −0.7
CRAF^SSDD nH (Hill slope) [4]: −0.8

Compound: CC(C)(C)c1nc(-c2cccc(NS(=O)(=O)c3c(F)cccc3F)c2F)c(-c2ccnc(N)n2)s1 [Dabrafenib]
IC50 [1]: 9 nM and 8.58 nM
ARAF^SSDD nH (Hill slope) [1]: −1.1
BRAF^WT nH (Hill slope) ([2]; four-parameter fit, 200 μM ATP): −1.4
CRAF^WT nH (Hill slope) [3]: −0.9
CRAF^SSDD nH (Hill slope) [4]: −1.0

Compound: OCCn1cc(-c2ccc3c(c2)CC/C3=N\O)c(-c2ccncc2)n1 [GDC0879]
ARAF^SSDD nH (Hill slope) [1]: −0.4
BRAF^WT nH (Hill slope) [2]: −0.9
CRAF^WT nH (Hill slope) [3]: −1.0
CRAF^SSDD nH (Hill slope) [4]: −0.7

IC50 [1]: 225 ± 67.3 nM
ARAF^SSDD nH (Hill slope) [1]: −1.4
Compound: C[C@@H](NC(=O)c1ncnc(N)c1Cl)c1ncc(C(=O)Nc2cc(C(F)(F)F)c(Cl)cn2)s1 [Tovorafenib]

Compound: Cc1ccc(C(=O)Nc2ccc(CN3CCN(C)CC3)c(C(F)(F)F)c2)cc1C#Cc1cnc2cccnn12 [Ponatinib]
ARAF^SSDD nH (Hill slope) [1]: −1.2
BRAF^WT nH (Hill slope) ([2]; four-parameter fit, 200 μM ATP): −2.0
CRAF^WT nH (Hill slope) [3]: −0.9
CRAF^SSDD nH (Hill slope) [4]: −1.6
